Experimental data published in patent US8609812B2, “Use of β-2-microglobulin to assess glomerular alterations and damage in the kidney” (Novartis AG, priority 2007, dated 2013).

System: kidney
Assay: rat in vivo studies, histopathology of kidney
From the text: Results of in vivo studies and histopathology. All 10 rat in vivo studies were successfully conducted.
In FIG. 2, the distributions of grades of the histopathology assessment are shown. The predominance of grade 1 and grade 2 findings and the absence of grade 5 lesions indicate that the goal of inducing mainly mild nephrotoxicity has been achieved. The considerable number of grade 1 and some grade 2 findings in the vehicle-dosed and the hepatotoxicant-dosed animals indicates the level of sensitivity of the histopathology assessment performed in this project. No significant dose-dependent nephrotoxicity was induced by the hepatotoxicants. In FIG. 3 a detailed list of all reported localized lesions, including the number of occurrences for each grade, separated by nephrotoxicant-dosed animals and the control animals (vehicle-dosed and hepatotoxicant-dosed) is shown. Seventy-five different localized finding were observed.
The different types of lesions were usually not observed in an isolated fashion, but typically in a highly correlated manner representing different molecular processes. In FIG. 4, all histopathology findings are shown for the cisplatin study. […] In addition, a logical sequence of molecular processes along the dose- and time-ordered animals can be observed. […]

Row | SMILES | histopathology findings in the kidney (ANIT study, vehicle or different doses) | renal histopathology findings, sequence of processes (rat, in vivo)
1 | S=C=Nc1cccc2ccccc12 [ANIT, alpha-naphtylisothiocyanate] | not in the kidney | –
2 | N.N.[Cl][Pt][Cl] [cisplatin] | – | Necrosis as a consequence of damage is seen, and then regeneration processes such as basophilia and mitosis are seen
